Tested on: SARS-CoV-2
[1] = improvement of body temperature, SpO2, chest imaging followed by negative conversion of SARS-CoV-2, N = 107

SMILES: NC(=O)c1nc(F)cnc1O [Compound A, 6-fluoro-3-hydroxy-2-pyrazinecarboxamide]
- median time to improvement compared with control group (Compound A group (107 patients) vs control group (49 patients)): shorter by approximately three days
- treatment effect compared with control group (Compound A group vs control group): statistically significantly higher treatment effect
- clinical safety (Compound A group, 107 patients, up to 14 days of treatment): no clinical safety concerns were identified
- Time to improvement in 25% of patients (days) (median) [1]: 7.7 days
- Time to improvement in 50% of patients (days) (median) [1]: 11.8 days
- Time to improvement in 75% of patients (days) (median) [1]: 15.6 days
- Patients with improvement (number of patients of N = 107, standard of care + 1,800 mg BID Day 1, 800 mg BID up to 13 days, oral, mITT): 82
